Data: patent publication US20080021054A1, “COMPOSITIONS AND TREATMENTS FOR INHIBITING KINASE AND/OR HMG-COA REDUCTASE” (priority 2004, published 2008)
Where “and” joins values, the source holds several entries; their conditions need not be identical. Equal values may be shown once.

Test system: oxazolone-induced mouse ear swelling
Experiment: Model for inhibition of topical inflammation (oxazolone-induced mouse ear swelling)
Type: in vivo, BALB/c male mice
Conditions: topical to right ear, ear thickness 24 hours after oxazolone challenge
Description: Left ears were untreated. The thickness of both ears of each animal was measured with a Dyer model micrometer gauge 24 hours after oxazolone challenge, and the net increase in thickness of right ears versus left ears was calculated for each animal. Percent inhibition was calculated according to the formula: [(Iv-It)/Iv]×100, where Iv and It respectively refer to the average net increase in right ear thickness (mm) for vehicle and candidate compound treated mice.

CC(C)c1nc(N(C)S(C)(=O)=O)nc(-c2ccc(F)cc2)c1/C=C/[C@@H](O)C[C@@H](O)CC(=O)O [Rosuvastatin sodium]
% Inh. (dose 2 × 0.3 mg): 20%

CC(C)c1c(C(=O)Nc2ccccc2)c(-c2ccccc2)c(-c2ccc(F)cc2)n1CC[C@@H](O)C[C@@H](O)CC(=O)O [Atorvastatin sodium]
% Inh. (dose 2 × 0.3 mg): 9% | % Inh. (dose 2 × 1 mg): 31% | % Inh. (dose 2 × 2 mg): 63%

CC(C)c1c(C(=O)Nc2ccccc2)c(-c2ccccc2)c(-c2ccc(F)cc2)n1CC[C@@H]1C[C@@H](O)CC(=O)O1 [Atorvastatin lactone]
% Inh. (dose 2 × 0.3 mg): 40% | % Inh. (dose 2 × 0.3 mg, listed as atorvastatin lactone): 50% and 58% and 40% | % Inh. (dose 2 × 1 mg): 58% | % Inh. (dose 2 × 2 mg): 50%

O=C([O-])C[C@H](O)C[C@H](O)/C=C/c1c(C2CC2)nc2ccccc2c1-c1ccc(F)cc1.O=C([O-])C[C@H](O)C[C@H](O)/C=C/c1c(C2CC2)nc2ccccc2c1-c1ccc(F)cc1.[Ca+2] [Pitavastatin calcium]
% Inh. (dose 2 × 0.3 mg): 9% | % Inh. (dose 2 × 2 mg): 60%

CC(C)n1c(/C=C/C(O)CC(O)CC(=O)O)c(-c2ccc(F)cc2)c2ccccc21 (stereo not shown) [Fluvastatin sodium]
% Inh. (dose 2 × 0.3 mg): 28%

CC[C@H](C)C(=O)O[C@H]1C[C@H](O)C=C2C=C[C@H](C)[C@H](CC[C@@H](O)C[C@@H](O)CC(=O)O)[C@H]21 [Pravastatin sodium]
% Inh. (dose 2 × 0.3 mg): 24%

COc1ccc2c(c1)c(CC(=O)O)c(C)n2C(=O)c1ccc(Cl)cc1 [Indomethacin]
% Inh. (dose 2 × 0.3 mg): 44%
